According to patent publication US9783537B2, “3-(4-ethylnylphenyl) pyridopyrimidinone compounds and process for preparation thereof useful as potential anticancer agents” (Council of Scientific & Industrial Research, priority 2013, dated 2017):
Read-outs that look alike come from different tables or passages of the source.

How the values were obtained:
CCRF-CEM = assay: SRB 48 h growth assay, Leukemia CCRF-CEM; type: cell-based, human; settings: Homo sapiens
HOP-62 = assay: SRB 48 h growth assay, Non-small Cell Lung HOP-62; type: cell-based, human; settings: HOP-62, Non-small Cell Lung; for GI50: Homo sapiens
HOP-92 = assay: SRB 48 h growth assay, Non-small Cell Lung HOP-92; type: cell-based, human; settings: HOP-92, Non-small Cell Lung
NCI-H23 = assay: SRB 48 h growth assay, Non-small Cell Lung NCI-H23; type: cell-based, human; settings: for GI50: Homo sapiens
NCI-H522 = assay: SRB 48 h growth assay, Non-small Cell Lung NCI-H522; type: cell-based, human
HCT-116 = assay: SRB 48 h growth assay, Colon HCT-116; type: cell-based, human; settings: HCT-116, Colon
KM12 = assay: SRB 48 h growth assay, Colon KM12; type: cell-based, human
LOX IMVI = assay: SRB 48 h growth assay, Melanoma LOX IMVI; type: cell-based, human; settings: for GI50: Homo sapiens
MDA-MB-435 = assay: SRB 48 h growth assay, Melanoma MDA-MB-435; type: cell-based, human; settings: Homo sapiens, MDA-MB-435, Melanoma
SK-MEL-5 = assay: SRB 48 h growth assay, Melanoma SK-MEL-5; type: cell-based, human; settings: SK-MEL-5, Melanoma
UACC-257 = assay: SRB 48 h growth assay, Melanoma UACC-257; type: cell-based, human; settings: UACC-257, Melanoma
OVCAR-3 = assay: SRB 48 h growth assay, Ovarian OVCAR-3; type: cell-based, human; settings: OVCAR-3, Ovarian
NCI/ADR-RES = assay: SRB 48 h growth assay, Ovarian NCI/ADR-RES; type: cell-based, human
SK-OV-3 = assay: SRB 48 h growth assay, Ovarian SK-OV-3; type: cell-based, human; settings: SK-OV-3, Ovarian
786-0 = assay: SRB 48 h growth assay, Renal 786-0; type: cell-based, human; settings: 786-0, Renal; for GI50: Homo sapiens
ACHN = assay: SRB 48 h growth assay, Renal ACHN; type: cell-based, human; settings: for GI50: Homo sapiens
TK-10 = assay: SRB 48 h growth assay, Renal TK-10; type: cell-based, human; settings: TK-10, Renal; for GI50: Homo sapiens
PC-3 = assay: SRB 48 h growth assay, Prostate PC-3; type: cell-based, human; settings: PC-3, Prostate
MCF7 = assay: SRB 48 h growth assay, Breast MCF7; type: cell-based, human; settings: Homo sapiens
HS578T = assay: SRB 48 h growth assay, Breast HS578T; type: cell-based, human; settings: Homo sapiens, Hs-578T
BT-549 = assay: SRB 48 h growth assay, Breast BT-549; type: cell-based, human; settings: BT-549, Breast
[1] = tested on: six leukemia cancer cell lines (CCRF-CEM, HL-60, K-562, MOLT-4, SR and RPMI-8226); assay: in vitro anticancer activity, leukemia panel; type: cell-based; settings: Homo sapiens, exposure at least 48 h, read-out: GI50, range over panel
[2] = in vitro anticancer activity, non-small cell lung panel; type: cell-based; settings: Homo sapiens; nine non-small cell lung cancer cell lines, exposure at least 48 h; read-out: GI50, range over panel
[3] = tested on: seven colon cancer cell line (COLO 205, HCC-2998, HCT-116, HCT-15, HT29, KM12 and SW-620); assay: in vitro anticancer activity, colon panel; type: cell-based; settings: Homo sapiens; seven colon cancer cell lines, exposure at least 48 h; read-out: GI50, range over panel
[4] = in vitro anticancer activity, melanoma panel; type: cell-based; settings: Homo sapiens; nine melanoma cell lines, exposure at least 48 h; read-out: GI50, range over panel
[5] = tested on: seven ovarian cancer cell lines (IGROV1, OVCAR-3, OVCAR-4, OVCAR-5, OVCAR-8, NCI/ADR-RES and SK-OV-3); assay: in vitro anticancer activity, ovarian panel; type: cell-based; settings: Homo sapiens, exposure at least 48 h, read-out: GI50, range over panel
[6] = tested on: six breast cancer cell line (MCF-7, MDA-MB-231/ATCC, HS 578T, TD-47D, MDA-MB-468 and BT-549); assay: in vitro anticancer activity, breast panel; type: cell-based; settings: Homo sapiens; six breast cancer cell lines, exposure at least 48 h; read-out: GI50, range over panel
[7] = read-out: Growth Inhibition GI50
[8] = read-out: Log10 GI50 (converted)
[9] = Homo sapiens, read-out: Growth Inhibition GI50
[10] = Homo sapiens, read-out: Log10 GI50 (converted)
[11] = Homo sapiens, read-out: Log10 LC50 (converted)
[12] = read-out: Log10 LC50 (converted)

## C#Cc1ccc(-n2c(/C=C/c3ccc4ccccc4n3)nc3ncccc3c2=O)cc1 [4t, (E)-3-(4-Ethynylphenyl)-2-(2-(quinolin-2-yl)vinyl)pyrido[2,3-d]pyrimidin-4(3H)-one]
CCRF-CEM; CCKF-CEM, read-out: Log10 LC50 (converted)
  CC50: > 100 µM
CCRF-CEM; [7]
  GI50: 260 nM
CCRF-CEM; [8]
  GI50: 263 nM
HOP-62
  Log10 TGI50: −5.72
HOP-62; [7]
  GI50: 460 nM
HOP-62; [8]
  GI50: 468 nM
HOP-92
  Log10 TGI50: −5.01
HOP-92; [9]
  GI50: 180 nM
HOP-92; [10]
  GI50: 186 nM
HOP-92; [11]
  CC50: > 100 µM
NCI-H23
  Log10 TGI50: −5.62
NCI-H23; [7]
  GI50: 700 nM
NCI-H23; [8]
  GI50: 708 nM
NCI-H522
  Log10 TGI50: −6.10
NCI-H522; [9]
  GI50: 270 nM
NCI-H522; [10]
  GI50: 269 nM
NCI-H522; [11]
  CC50: 4.9 µM
HCT-116
  Log10 TGI50: −5.92
HCT-116; [9]
  GI50: 340 nM
HCT-116; [10]
  GI50: 347 nM
HCT-116; [11]
  CC50: 3.89 µM
KM12
  Log10 TGI50: −5.97
KM12; [9]
  GI50: 320 nM
KM12; [10]
  GI50: 324 nM
KM12; [11]
  CC50: 3.47 µM
LOX IMVI
  Log10 TGI50: −5.99
LOX IMVI; [7]
  GI50: 320 nM
LOX IMVI; [8]
  GI50: 324 nM
MDA-MB-435; [7]
  GI50: 190 nM
MDA-MB-435; [8]
  GI50: 195 nM
SK-MEL-5; [9]
  GI50: 170 nM
SK-MEL-5; [10]
  GI50: 178 nM
SK-MEL-5; [11]
  CC50: 759 nM
SK-MEL-5
  Log10 TGI50: −6.43
UACC-257; [9]
  GI50: 430 nM
UACC-257; [10]
  GI50: 437 nM
UACC-257; [11]
  CC50: 8.71 µM
UACC-257
  Log10 TGI50: −5.66
OVCAR-3; [9]
  GI50: 300 nM
OVCAR-3; [10]
  GI50: 302 nM
OVCAR-3; [11]
  CC50: 4.79 µM
OVCAR-3
  Log10 TGI50: −6.06
NCI/ADR-RES
  Log10 TGI50: −5.75
NCI/ADR-RES; [9]
  GI50: 380 nM
NCI/ADR-RES; [10]
  GI50: 380 nM
NCI/ADR-RES; [11]
  CC50: > 100 µM
SK-OV-3; [9]
  GI50: 320 nM
SK-OV-3; [10]
  GI50: 324 nM
SK-OV-3; [11]
  CC50: > 100 µM
SK-OV-3
  Log10 TGI50: −6.03
786-0
  Log10 TGI50: −5.88
786-0; [7]
  GI50: 380 nM
786-0; [8]
  GI50: 389 nM
ACHN
  Log10 TGI50: −5.89
ACHN; [7]
  GI50: 320 nM
ACHN; [8]
  GI50: 324 nM
TK-10; [7]
  GI50: 430 nM
TK-10; [8]
  GI50: 437 nM
TK-10
  Log10 TGI50: −5.82
PC-3; [9]
  GI50: 340 nM
PC-3; [10]
  GI50: 339 nM
PC-3; [11]
  CC50: > 100 µM
PC-3
  Log10 TGI50: −5.76
MCF7; [7]
  GI50: 280 nM
MCF7; [8]
  GI50: 288 nM
MCF7; [12]
  CC50: > 100 µM
HS578T; [7]
  GI50: 240 nM
HS578T; [8]
  GI50: 240 nM
HS578T; [12]
  CC50: > 100 µM
BT-549
  Log10 TGI50: −5.87
BT-549; [9]
  GI50: 350 nM
BT-549; [10]
  GI50: 355 nM
BT-549; [11]
  CC50: 5.5 µM
[1]
  GI50: 3.2 to 7.35 µM
[2]
  GI50: 1.8 to 5.66 µM
[3]
  GI50: 3.55 to 52.8 µM
[4]
  GI50: 1.6 to 6.3 µM
[5]
  GI50: 2.41 to 32.3 µM
[6]
  GI50: 2.31 to 11.4 µM
